pKi: −log10 of the molar value.
Legend:
[1] = test system: aggression in mice; conditions: cited from earlier work
[2] = test system: muricide in rats; conditions: cited from earlier work
[3] = test system: anti-noradrenergic effects; conditions: cited from earlier work
[4] = biological target: T1, LTB4 receptor (Cavia porcellus, UniProt H0VYV8); experiment: Inhibition of [3H]LTB4 binding, guinea pig spleen membrane assay; conditions: 10 μM test compound; for inhibition at 10 µM: 1 nM [3H]LTB4, read-out: LTB4 % inhib @ 10 μm; for LTB4 % inhib @ 10 μm: 1 nM [3H]LTB4
T1 construct: 1.0 mg/mL of the Guinea pig spleen membrane preparation; from tissue; host or cells: guinea pig spleen membranes
T1 sequence (H0VYV8 1-348): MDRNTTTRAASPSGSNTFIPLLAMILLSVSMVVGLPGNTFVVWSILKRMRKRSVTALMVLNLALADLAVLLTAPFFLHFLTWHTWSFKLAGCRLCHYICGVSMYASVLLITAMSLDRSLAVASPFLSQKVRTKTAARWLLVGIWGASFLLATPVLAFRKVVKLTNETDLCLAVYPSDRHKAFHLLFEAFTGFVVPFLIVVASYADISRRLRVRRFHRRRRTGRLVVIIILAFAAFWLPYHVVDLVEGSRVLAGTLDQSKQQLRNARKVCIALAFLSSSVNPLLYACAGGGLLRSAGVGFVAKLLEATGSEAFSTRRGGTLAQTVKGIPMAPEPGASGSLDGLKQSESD
Procedure: The ability of 1-(3-hydroxy-4-methoxyphenyl)-4-methyl-5-ethyl-7,8-dimethoxy-5H-2,3-benzodiazepine to inhibit [^3H]LTB4 binding to the LTB4 receptor was determined as follows using the guinea pig spleen membrane assay of Cheng et al., J. Pharmacol. Exp. Ther., 236(1), 126-132, 1986, the entire disclosure of which is incorporated herein by reference.
Reactions were carried out in a phosphate buffer (pH 7.4) containing NaCl, MgCl2, EDTA, and bacitracin. The reaction volume of 150 μL containing 1.0 mg/mL of the Guinea pig spleen membrane preparation and 1 nM [^3H]LTB4, with or without a candidate inhibitor, was incubated at 0-4° C. for 2 hours. Candidate inhibitors included the compounds listed in Table 1 and unlabeled LTB4 as a control. The reaction was terminated by rapid vacuum filtration onto glass fiber filters. The filter was washed with cold buffer, dried and placed in a scintillation vial. Radioactivity trapped onto the filters was determined and compared to control values in order to ascertain any interactions of the test compound with the LTB4 binding site.

[5] = test system: central BZ receptors; conditions: cited from earlier work
[6] = biological target: peripheral BZ receptors (Homo sapiens, UniProt P30536); conditions: cited from earlier work
Chain of peripheral BZ receptors (P30536 whole entry): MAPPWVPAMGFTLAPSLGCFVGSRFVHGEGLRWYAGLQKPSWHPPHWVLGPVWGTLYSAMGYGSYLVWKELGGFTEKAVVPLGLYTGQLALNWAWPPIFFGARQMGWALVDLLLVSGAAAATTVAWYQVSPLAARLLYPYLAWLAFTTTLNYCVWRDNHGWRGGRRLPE

[7] = biological target: T2, TXA2 receptor (Homo sapiens, UniProt P21731); conditions: reference competitor in [3H]SQ 29,548 assay; cited from earlier work
T2 construct: was determined via the human platelet-based assay of Hedberg et al; from tissue; host or cells: human platelets
T2 sequence (P21731 1-343): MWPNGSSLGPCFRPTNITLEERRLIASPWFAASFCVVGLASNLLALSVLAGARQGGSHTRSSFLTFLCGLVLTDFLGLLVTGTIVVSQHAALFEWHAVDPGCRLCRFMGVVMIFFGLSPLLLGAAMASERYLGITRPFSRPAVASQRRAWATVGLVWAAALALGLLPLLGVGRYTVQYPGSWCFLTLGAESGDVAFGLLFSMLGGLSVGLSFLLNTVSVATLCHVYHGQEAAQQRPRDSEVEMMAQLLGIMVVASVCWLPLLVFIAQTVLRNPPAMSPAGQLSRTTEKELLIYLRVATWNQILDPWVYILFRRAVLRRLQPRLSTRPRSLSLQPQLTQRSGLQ

[8] = test system: DSS-induced colitis in mice; experiment: Dextran sulfate sodium induced colitis: mouse model of inflammatory bowel disease; assay type: in vivo; conditions: for % of normal length: colon length; for Mean DAIWT ± SEM: DAI without weight loss parameter; for Mean DAI ± SEM: mice
[9] = test system: narcosis in mice; conditions: cited from earlier work
[10] = biological target: T2, TXA2 receptor; experiment: TXA2 binding assay ([3H]SQ 29,548), human platelet-based; conditions: human platelets
Procedure: The ability of 1-(3-hydroxy-4-methoxyphenyl)-4-methyl-5-ethyl-7,8-dimethoxy-5H-2,3-benzodiazepine to inhibit the binding of [^3H]SQ 29,548 (30-60 Ci/mmol) was determined via the human platelet-based assay of Hedberg et al., “Characterization of [^3H]SQ 29,548 as a High Affinity Radioligand Binding to Thromboxane A2—Receptors in Human Platelets.”, J. Pharmacol. Exp. Ther. 245: 786-792 (1988), with modifications. TXA2 is a very unstable molecule, thus a surrogate ligand of known affinity for the TXA2 receptor is required as a standard for determination of binding affinity of new potential TXA2 ligands. [^3H]SQ 29,548 is a ligand with known binding affinity for the TXA2 receptor. [^3H]SQ 29,548 has been employed as a TXA2 ligand in several published studies, is accepted as a TXA2 binding standard, and is thus useful as a standard in assessing the binding affinity of new compounds to the TXA2 receptor. […]
Reactions were carried out in a reaction mixture comprising 25 mM TRIS-HCl (pH 7.4) containing 138 mM NaCl, 5 mM KCl, 5 mM MgCl2, 5.5 mM dextrose, and 2 mM EDTA at 25° C. for 60 minutes. […] Radioactivity trapped onto the filters was determined and compared to control values in order to ascertain any interactions of test compound with the thromboxane A2 binding site.

CCC1C(C)=NN=C(c2ccc(OC)c(OC)c2)c2cc(OC)c(O)cc21 (stereo not drawn) [Compound 1, 1-(3,4-dimethoxyphenyl)-4-methyl-5-ethyl-7-hydroxy-8-methoxy-5H-2,3-benzodiazepine]
inhibition of aggression [1]: 0% | inhibition of muricide [2]: 20% | anti-noradrenergic effects [3]: no effect

CCC1C(C)=NN=C(c2ccc(OC)c(OC)c2)c2cc(O)c(OC)cc21 (stereo not drawn) [Compound 2, 1-(3,4-dimethoxyphenyl)-4-methyl-5-ethyl-7-methoxy-8-hydroxy-5H-2,3-benzodiazepine]
inhibition at 10 µM [4]: 36%

CCC1C(C)=NN=C(c2ccc(OC)c(O)c2)c2cc(OC)c(O)cc21 (stereo not drawn) [Compound 6, 1-(3-hydroxy-4-methoxyphenyl)-4-methyl-5-ethyl-7-hydroxy-8-methoxy-5H-2,3-benzodiazepine]
LTB4 % inhib @ 10 μm [4]: inactive

CCC1C(C)=NN=C(c2ccc(OC)c(OC)c2)c2cc(OC)c(OC)cc21 (stereo not drawn) [tofisopam]
interaction with central BZ receptors [5]: does not interact | binding to peripheral BZ receptors [6]: binds only weakly

Pinane-thromboxane
pKi [7]: 6.83

O=C(O)c1cc(/N=N/c2ccc(S(=O)(=O)Nc3ccccn3)cc2)ccc1O [Sulfasalazine, reference compound]
Colon shortening inhib. % ([8]; 300 mg/kg IP daily + DSS): 30% | Mean colon length CM ± SEM ([8]; 300 mg/kg IP daily + DSS): 8.8 ± 0.29 CM | Mean weight (g) ± SEM Day 0 ([8]; 300 mg/kg IP daily + DSS): 22.6 ± 0.2 g | % weight change ± SEM Day 7 ([8]; 300 mg/kg IP daily + DSS): −0.6 ± 0.5% | Mean weight (g) ± SEM Day 7 ([8]; 300 mg/kg IP daily + DSS): 22.4 ± 0.2 g | % weight change ± SEM Day 8 ([8]; 300 mg/kg IP daily + DSS): −11.4 ± 1.4% | Mean weight (g) ± SEM Day 8 ([8]; 300 mg/kg IP daily + DSS): 20.0 ± 0.4 g | % weight change ± SEM Day 9 ([8]; 300 mg/kg IP daily + DSS): −17.7 ± 1.8% | Mean weight (g) ± SEM Day 9 ([8]; 300 mg/kg IP daily + DSS): 18.6 ± 0.4 g | % of normal length ([8]; 300 mg/kg IP daily + DSS): 69.5% | weight loss as compared to the negative controls ([8]; 300 mg/kg daily + DSS): no observed significant difference

CCC1C(C)=NN=C(c2ccc(O)c(OC)c2)c2cc(OC)c(O)cc21 (stereo not drawn) [Compound 5, 1-(3-methoxy-4-hydroxyphenyl)-4-methyl-5-ethyl-7-hydroxy-8-methoxy-5H-2,3-benzodiazepine]
LTB4 % inhib @ 10 μm [4]: inactive | inhibition of aggression [1]: 28.6% | inhibition of muricide [2]: 20% | anti-noradrenergic effects [3]: measurable activity

CCC1C(C)=NN=C(c2ccc(O)c(OC)c2)c2cc(OC)c(OC)cc21 (stereo not drawn) [Compound 3, 1-(3-methoxy-4-hydroxyphenyl)-4-methyl-5-ethyl-7,8-dimethoxy-5H-2,3-benzodiazepine]
inhibition at 10 µM [4]: 16.8% | inhibition of aggression [1]: 0% | inhibition of muricide [2]: 0% | anti-noradrenergic effects [3]: measurable activity | narcosis-potentiating activity [9]: demonstrate narcosis-potentiating activity

CCC1C(C)=NN=C(c2ccc(OC)c(O)c2)c2cc(OC)c(OC)cc21 (racemic) [Compound 4, 1-(3-hydroxy-4-methoxyphenyl)-4-methyl-5-ethyl-7,8-dimethoxy-5H-2,3-benzodiazepine]
inhibition at 10 µM [4]: 64% | inhibition at 10 µM [10]: 25.9% | Mean colon length CM ± SEM ([8]; 16 mg/kg IP daily + DSS): 8.9 ± 0.40 CM | Mean weight (g) ± SEM Day 0 ([8]; 16 mg/kg IP daily + DSS): 24.6 ± 0.5 g | % weight change ± SEM Day 7 ([8]; 16 mg/kg IP daily + DSS): +0.5 ± 2.2% | Mean weight (g) ± SEM Day 7 ([8]; 16 mg/kg IP daily + DSS): 24.8 ± 0.8 g | % weight change ± SEM Day 8 ([8]; 16 mg/kg IP daily + DSS): −1.7 ± 3.0% | Mean weight (g) ± SEM Day 8 ([8]; 16 mg/kg IP daily + DSS): 24.3 ± 1.0 g | % weight change ± SEM Day 9 ([8]; 16 mg/kg IP daily + DSS): −7.5 ± 4.3% | Mean weight (g) ± SEM Day 9 ([8]; 16 mg/kg IP daily + DSS): 22.9 ± 1.4 g | % of normal length ([8]; 16 mg/kg IP daily + DSS): 70.2% | Colon shortening inhib. % ([8]; 16 mg/kg IP daily + DSS, listed as 1-(3-hydroxy-4-methoxy-phenyl)-4-methyl-5-ethyl-7,8-dimethoxy-5H-2,3-benzodiazep): significantly inhibited colonic shortening | Colon shortening inhib. % ([8]; 16 mg/kg IP daily + DSS, listed as 1-(3-hydroxy-4-methoxyphenyl)-4-methyl-5-ethyl-7,8-dimethoxy-5H-2,3-benzodiazepi): 32% | Colon shortening inhib. % ([8]; 32 mg/kg IP daily + DSS): 14% | Mean colon length CM ± SEM ([8]; 32 mg/kg IP daily + DSS): 7.9 ± 0.08 CM | Mean DAIWT ± SEM ([8]; 32 mg/kg IP daily + DSS): 2.56 ± 0.27 | Mean weight (g) ± SEM Day 0 ([8]; 32 mg/kg IP daily + DSS): 24.8 ± 0.2 g | % weight change ± SEM Day 7 ([8]; 32 mg/kg IP daily + DSS): −2.5 ± 1.7% | Mean weight (g) ± SEM Day 7 ([8]; 32 mg/kg IP daily + DSS): 24.1 ± 0.5 g | % weight change ± SEM Day 8 ([8]; 32 mg/kg IP daily + DSS): −9.1 ± 2.6% | Mean weight (g) ± SEM Day 8 ([8]; 32 mg/kg IP daily + DSS): 22.5 ± 0.7 g | % weight change ± SEM Day 9 ([8]; 32 mg/kg IP daily + DSS): −15.7 ± 4.1% | Mean weight (g) ± SEM Day 9 ([8]; 32 mg/kg IP daily + DSS): 20.9 ± 1.0 g | % of normal length ([8]; 32 mg/kg IP daily + DSS): 62.3% | Mean DAI ± SEM ([8]; 32 mg/kg IP daily + DSS): 2.67 ± 0.36 | Colon shortening inhib. % ([8]; 64 mg/kg IP daily + DSS): 37% | Mean colon length CM ± SEM ([8]; 64 mg/kg IP daily + DSS): 9.2 ± 0.33 CM | Mean DAIWT ± SEM ([8]; 64 mg/kg IP daily + DSS): 2.00 ± 0.45 | Mean weight (g) ± SEM Day 0 ([8]; 64 mg/kg IP daily + DSS): 23.7 ± 0.2 g | % weight change ± SEM Day 7 ([8]; 64 mg/kg IP daily + DSS): −2.7 ± 2.8% | Mean weight (g) ± SEM Day 7 ([8]; 64 mg/kg IP daily + DSS): 23.0 ± 0.6 g | % weight change ± SEM Day 8 ([8]; 64 mg/kg IP daily + DSS): −4.8 ± 4.3% | Mean weight (g) ± SEM Day 8 ([8]; 64 mg/kg IP daily + DSS): 22.5 ± 0.9 g | % weight change ± SEM Day 9 ([8]; 64 mg/kg IP daily + DSS): −9.7 ± 4.9% | Mean weight (g) ± SEM Day 9 ([8]; 64 mg/kg IP daily + DSS): 21.3 ± 1.1 g | % of normal length ([8]; 64 mg/kg IP daily + DSS): 72.5% | Mean DAI ± SEM ([8]; 64 mg/kg IP daily + DSS): 2.06 ± 0.48 | weight loss as compared to the negative controls ([8]; test compound groups (64, 32, 16 mg/kg) + DSS): no observed significant difference
